Data on 6 substances can be found in patent US5017687A, “Peptides for the detection of HTLV-1 infection” (Virovahl, S.A., priority 1988, dated 1991).

“And” between values parts separate entries of the source, which are not always exact repeats. Equal values may be shown once. Ends that are not written are not given here.

In data set [1] the test system is antibodies to HTLV-1. In words: ELISA immunologic reactivity of peptides gpAHTLV-1, gpBHTLV-1 and gpCHTLV-1 with human sera (Table 2). It counts as binding. The conditions noted are these: for Mean O.D.405 of Negative Sera / cut off = Mean O.D.405 of Negative Sera + 6 × S.D.: negative sera of Table 2; for confirmed positive HTLV-1 serum samples reacted with peptide: reactive/tested, 6 HTLV-1 positive sera. The procedure: (§1) Polylysine at a concentration of 1 mg/ml was added to the microtiter plates and allowed to incubate for 30 minutes. The polylysine was then discarded and peptide gpAHTLV-1 was added to the wells in a concentration of 10 to 100 μg/ml for coating. After the peptide incubated in the well for a length of time sufficient to allow the peptide to become bonded to the well, the peptide solution was removed and a solution of glutaraldehyde, which stabilizes the peptide attachment to the wells, was added for 15 minutes. The glutaraldehyde solution was then removed, the wells washed with buffer, and a mixture of glycine and bovine serum albumin (BSA) was added which served to block unbound sites in the wells and minimize spurious reactions during the ELISA test per se. After a final washing step, the plates were ready to use.
(§2) A convenient variation of known ELISA methods was used with the microtiter plates prepared as above. Serum samples from individuals which had been diluted 1:50 in PBS (phosphate buffered saline) containing 0.05% polyoxyethylenesorbitan monolaurate (Tween 20) and 1% BSA were added to each well and allowed to incubate for 90 minutes at 37° C. in a humidified atmosphere. The diluted serum samples were then removed from the plates and the wells washed three times with PBS containing 0.05% Tween 20. A conjugated anti-human immunoglobulin (Ig) antibody was then added to the wells and allowed to incubate for 90 minutes. The conjugated antibody was produced in a goat or rabbit and was specific for human IgG, IgM, immunoglobulin light chains, or combinations thereof. Preferably, alkaline-phophatase conjugated anti-human IgG (from Dakopatts) diluted 1:500 for use in PBS containing 0.05% Tween 20 and 1% BSA was used in the ELISA. After the conjugate had incubated a sufficient length of time to react with bound human antibodies, the plates were washed three times as above. In order to detect antibodies to HTLV-1 in the human serum that react with the peptide gpAHTLV-1 used as the antigen, (i.e. positive reactions), a chromogenic substrate, alkaline phosphatase substrate (Sigma Cat. No. 104 tablets) dissolved in a Na carbonate/MgCl2 buffer and adjusted to a concentration of 1 μg/ml which is cleaved by the alkaline phosphatase enzyme attached to the anti-human Ig antibody to yield a colored product, was added. After incubation for approximately 40 minutes at room temperature, positive reactions indicated the presence of antibodies in the sample reactive with the antigen. A yellow to orange to reddish-brown color in each well indicating a positive reaction, was read in a spectrophotometer at 405 nm to quantify the reaction. Spectrophotometric readings were adjusted to correct for background reactions.
Peptides gpAHTLV-1, gpBHTLV-1, gpCHTLV-1, synthesized as described in Example 1, were run in parallel ELISA tests as described in Example 2 against 6 serum samples positive for antibodies to HTLV-1, 8 serum samples positive for antibodies to HIV-1 and 10 blood donor sera negative for HIV-1/HIV-2.
For orientation: In an ELISA, binding on a coated surface is turned into a signal by an enzyme label.

In data set [2] the test system is HTLV-1 positive serum samples. In words: immunoreactivity screening of eight synthesized peptides A-H with HTLV-1 positive sera. Type of data set: binding, human. From the text:
The four peptides were selected from among eight different synthesized peptides designated A-H which correspond to the HTLV-1 envelope glycoprotein. These peptides were selected using various criteria similar to the selection of useful HIV-1 or HIV-2 peptides, e.g. proximity to or containing a cysteine residue (location of cysteine in similar proteins from related organisms being relatively invariant) and proximity to glycosylation sites. Although such criteria for selection of peptides can rule out potentially nonuseful peptides and indicate potentially useful peptides, further testing was required to identify which of the eight peptides would display immunoreactivity to HTLV-1 positive serum samples. The eight peptides were synthesized in the priority A through H with the […] believed to be least antigenic based on the above-criteria.

The subject of data set [3] is sera from HTLV-1 positive patients. The conditions noted are these: reactive/tested; Copeland et al., 1986; cited from earlier work.
Another data set has as its system HTLV-1 patient sera. The conditions noted are these: reactive/tested; Palker et al., 1986; cited from earlier work.
Data set [4] can be described thus: storage stability of peptide-coated microtiter plates. It counts as physicochemical. The conditions noted are these: peptide-coated microtiter plates stored for several months. The procedure: as §1
Data set [5] concerns antibodies to HTLV-1. Kind of data set: ELISA reactivity of gpHHTLV-1 with confirmed positive and true negative sera/CSF (Table 3). Type of data set: binding, human. The procedure:
as §1, §2
Peptide gpHHTLV-1 having the amino acid sequence: […]OH was synthesized as described in Example 1 and used in an ELISA test as described in Example 2 to measure its immunologic reactivity against confirmed Japanese HTLV-sera and sera from U.S.A. and Europe from patients with Adult T-cell Leukemia Tropical Spastic Paraparesis (TSP) and cerebrospinal fluids (CSF).

For data set [6], the system named is antibodies to HTLV-1. In words: ELISA absorbance on Japanese HTLV-1 sera using gpHHTLV-1 (Table 4). It counts as binding, human. The conditions noted are these: serum 1248, negative control, Western blot -; diluted 1/50. The procedure:
as §1
(§3) A convenient variation of known ELISA methods was used with the microtiter plates prepared as above. […] A yellow to orange to reddish-brown color in each well indicating a positive reaction, was read in a spectrophotometer at 405 nm to quantify the reaction. Spectrophotometric readings were adjusted to correct for background reactions.
Absorbance values on Japanese HTLV-1 sera were measured in ELISA using gpHHTLV-1 as well as Du-Pont HTLV-1 ELISA and Western blot. […]

The test system of data set [7] is antibodies to HTLV-1. In words: ELISA absorbance on sera and CSF from patients with ATL and TSP using gpHHTLV-1 (Table 5). It counts as binding, human. The conditions noted are these: neg CSF 8, 19, 21; diluted 1/20. The procedure:
as §1, §3
Absorbance values on sera and CSF from patients with ATL and TSP were measured in ELISA using gpHHTLV-1 sera diluted 1/50, CSF sera was diluted 1/20.

As for “X-Tyr-Thr-Cys-Ile-Val-Cys-Ile-Asp-Arg-Ala-Ser-Leu-Ser-Thr-Trp-His-Val-Leu- Tyr-Ser-Pro-Y-Z (YTCIVCIDRASLSTWHVLYSP; not fully specified (N-terminus, C-terminus); cysteine pairing not given here; also: end groups X, Y, Z left open in the general formula) [gpCHTLV-1]”, in the data set with antibodies to HTLV-1 [1], the “Mean O.D.405 of Negative Sera” value is given as 0.116 O.D.405, the “cut off = Mean O.D.405 of Negative Sera + 6 × S.D.” value came to 0.368 O.D.405 and the “confirmed positive HTLV-1 serum samples reacted with peptide” value is 5/6. Besides, the “usefulness for diagnosis of HTLV-1 infection (in words)” value (“usefulness for diagnosis” for short) in data set [2] is recorded as “useful for diagnosis of HTLV-1 infection”.
Regarding “X-Trp-Thr-His-Cys-Phe-Asp-Pro-Gln-Ile-Gln--Ala-Ile-Val-Ser-Ser-Pro-Cys-His-Asn-Ile-Leu-Y-Z (WTHCFDPQIQAIVSSPCHNIL; not fully specified (N-terminus, C-terminus); cysteine pairing not given here; also: end groups X, Y, Z left open in the general formula) [gpBHTLV-1]”, in the data set with antibodies to HTLV-1 [1], the “Mean O.D.405 of Negative Sera” value was determined as 0.088 O.D.405, the “cut off = Mean O.D.405 of Negative Sera + 6 × S.D.” value is listed as 0.298 O.D.405 and the “confirmed positive HTLV-1 serum samples reacted with peptide” value is given as 5/6. The “usefulness for diagnosis” value in data set [2] is “useful for diagnosis of HTLV-1 infection”.
With “Pro-Pro-Phe-Ser-Leu-Ser-Pro-Val-Pro-Thr-Leu-NH2 (PPFSLSPVPTL-NH2) [SP-70]”, the “sera from HTLV-1 positive patients reacting” value in data set [3] is reported as 4/12.
As to PYVEPTAPQVL [SP-71], the “HTLV-1 patient sera reacting in RIA” value in the data set with HTLV-1 patient sera is recorded as 8/9.
Consider “Gly-Leu-Asp-Leu-Leu-Phe-Trp-Glu-Gln-Gly-Gly-Leu-Cys-Lys-Ala-Leu-Gln-Glu-Gln-Cys-Arg-Phe-Pro-Asn-Cys-OH (GLDLLFWEQGGLCKALQEQCRFPNC-OH; cysteine pairing not given here) [gpAHTLV-1]”, for which, in the data set with antibodies to HTLV-1 [1], the “Mean O.D.405 of Negative Sera” value was found to be 0.124 O.D.405, the “cut off = Mean O.D.405 of Negative Sera + 6 × S.D.” value amounted to 0.490 O.D.405 and the “confirmed positive HTLV-1 serum samples reacted with peptide” value is reported as 6/6. The “usefulness for diagnosis” value in data set [2] was “useful for diagnosis of HTLV-1 infection”. The “antigenic activity of coated peptide after storage (in words)” value in data set [4] is given as “without any decrease in antigenic activity”.
As for “Leu-Asn-Thr-Glu-Pro-Ser-Gln-Leu-Pro-Pro-Thr-Ala-Pro-Pro-Leu-Leu-Pro-His-Ser-Asn-Leu-Asp-His-Ile-Cys-OH (LNTEPSQLPPTAPPLLPHSNLDHIC-OH) [gpHHTLV-1]”, the “Positive in ELISA” value is 1/1 with antibodies to HTLV-1 [5] (ATL CSF, positive/tested); 22/32 in the data set on antibodies to HTLV-1 [5] (Japanese HTLV-1 sera, positive/tested); 4/4 in the data set on antibodies to HTLV-1 [5] (TSP CSF, positive/tested); 4/4 in the data set with antibodies to HTLV-1 [5] (TSP sera, positive/tested); 0/4 with antibodies to HTLV-1 [5] (true negative: 4 EB virus IgM positive sera); 0/4 with antibodies to HTLV-1 [5] (true negative: 4 Leukemia patients sera). Also, the “Positive in ELISA” value with antibodies to HTLV-1 [5] (true negative: 4 Rheumatoid factor positive sera) was 0/4; with antibodies to HTLV-1 [5] (true negative: 4 Transplant recipients sera) it was 0/4; with antibodies to HTLV-1 [5] (true negative: 8 CSF (aseptic meningitis)), 0/8; in the data set with antibodies to HTLV-1 [5] (true negative: 8 HIV-2 positive sera), 0/8; in the data set with antibodies to HTLV-1 [5] (true negative: 28 blood donor sera) it was 0/28; in the data set on antibodies to HTLV-1 [5] (true negative: 30 HIV-1 positive sera), 0/30. Moreover, the “Positive in ELISA (percent)” value in the data set on antibodies to HTLV-1 [5] (Japanese HTLV-1 sera) stood at 69%. For the same substance, the “known positive sera confirmed HTLV-1 positive (in words)” value in the data set on antibodies to HTLV-1 [5] (Table 3 as summarised in text) is listed as “all known positive sera were confirmed HTLV-1 positive”. For the same substance, the “Absorbance values in gpHHTLV-1 ELISA” value in the data set on antibodies to HTLV-1 [6] was determined as 0.109. In addition, the “gpHHTLV-1 ELISA absorbance” value in the data set on antibodies to HTLV-1 [7] is 0.033 and 0.039 and 0.056. In data set [2], the “usefulness for diagnosis” value is recorded as “useful for diagnosis of HTLV-1 infection”.
